From patent US20260083865A1, “PROSTATE SPECIFIC MEMBRANE ANTIGEN (PSMA) LIGANDS AND USE THEREOF” (priority 2022, published 2026)
Numbered stars: 1 amine (or outer) side, 2 acyl side, 3 side chain; on linkers, the order of the positions; unused ones are H or OH. Bridge positions count the residues as written; N and C are the ends. Square brackets hold non-standard residues; d marks the D form. Side chains are listed from the residue outwards. Peptide text beside a SMILES is read from it. * marks the point of attachment. X3 = O=C(O)CN1CCN(CC(=O)O)CCN(CC(=O)NCCCOCCOCCOCCCN*)CCN(CC(=O)O)CC1; DOTA = O=C(O)CN1CCN(CC(=O)O)CCN(CC(=O)*)CCN(CC(=O)O)CC1; Phe(3-Cl) = N[C@@H](Cc1cccc(Cl)c1)C(=O)O; Phe(4-Cl) = N[C@@H](Cc1ccc(Cl)cc1)C(=O)O; Phe(4-NH2) = Nc1ccc(C[C@H](N)C(=O)O)cc1; X1 = O=C(CC1CCN([*:1])CC1)[*:2]; Cit = NC(=O)NCCC[C@H](N)C(=O)O; Suc = O=C(CCC(=O)[*:2])[*:1]; Tle = CC(C)(C)[C@H](N)C(=O)O; Pyridin(2-yl) = c1ccc(*)nc1; 4Amb = NCc1ccc(C(=O)O)cc1; Isovaleryl = CC(C)CC(=O)*; Orn = NCCC[C@H](N)C(=O)O; Aib = CC(C)(N)C(=O)O; CO = O=C([*:1])[*:2]; Bn = c1ccc(C*)cc1; βAla = NCCC(=O)O; NHBu = CCCCN*

Assays:
[1] = biological target: T1, PSMA-expressing C4-2 cells (Homo sapiens, UniProt Q04609); assay: FACS binding assay (competition with 50 nM PSM-0183); conditions: pIC50 category of FACS binding, C4-2 cells; read-out: pIC50 [C4-2] CAT (converted)
T1 construct: PSMA-expressing C4-2 cells (ATCC, Cat. No. CRL-3314) were cultured in RPMI-1640; host or cells: C4-2 cells
Method in brief: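 Competition format: fluorescent tracer PSM-0183 (50 nM) displaced from PSMA on C4-2 cells by a test compound titration over 1 h at 4 °C. Bound tracer was quantified as flow-cytometric AF488 median fluorescence after washing. Four-parameter logistic fits of MFI data gave IC50 and pIC50.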

[2] = biological target: T2, Fc-fusion protein of human PSMA (hPSMA-Fc) (Homo sapiens, UniProt Q04609); assay: Surface plasmon resonance assay (Biacore T200, single cycle kinetic); format: binding; conditions: pKD category for PSMA SPR activity assay, hPSMA-Fc, 25° C.; read-out: pKD CAT (converted)
T2 construct: purchased Acro Biosystems PSA-H5264
Method in brief: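 KD, expressed as pKD, came from 1:1 Langmuir fits of reference- and buffer-blank-subtracted SPR data. The runs were single-cycle kinetics at 25° C in HBST/0.1% DMSO over human PSMA-Fc, captured to ~1000 RU on a peptide-coated CM5 surface and regenerated with 10 mM glycine pH 1.5.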

T2 sequence (Q04609 44-750 limits assumed): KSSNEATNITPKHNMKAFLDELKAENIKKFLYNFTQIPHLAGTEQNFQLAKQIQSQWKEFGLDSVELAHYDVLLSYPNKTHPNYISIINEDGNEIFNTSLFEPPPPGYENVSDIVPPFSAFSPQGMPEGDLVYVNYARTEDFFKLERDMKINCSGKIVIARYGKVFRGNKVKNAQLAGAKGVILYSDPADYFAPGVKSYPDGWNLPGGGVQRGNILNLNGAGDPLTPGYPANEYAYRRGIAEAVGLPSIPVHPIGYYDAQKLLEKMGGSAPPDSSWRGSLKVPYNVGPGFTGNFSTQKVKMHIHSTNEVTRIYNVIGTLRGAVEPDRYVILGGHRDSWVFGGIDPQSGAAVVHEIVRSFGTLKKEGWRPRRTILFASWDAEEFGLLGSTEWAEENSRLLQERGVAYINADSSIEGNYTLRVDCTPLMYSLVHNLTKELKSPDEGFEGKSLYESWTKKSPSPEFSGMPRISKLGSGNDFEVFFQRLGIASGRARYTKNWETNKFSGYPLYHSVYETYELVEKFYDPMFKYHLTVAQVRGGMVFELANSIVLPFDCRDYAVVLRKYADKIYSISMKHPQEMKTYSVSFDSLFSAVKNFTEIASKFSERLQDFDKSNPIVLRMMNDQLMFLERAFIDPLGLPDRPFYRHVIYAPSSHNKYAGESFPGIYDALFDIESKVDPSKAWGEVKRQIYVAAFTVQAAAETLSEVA
T1 sequence (Q04609 whole entry): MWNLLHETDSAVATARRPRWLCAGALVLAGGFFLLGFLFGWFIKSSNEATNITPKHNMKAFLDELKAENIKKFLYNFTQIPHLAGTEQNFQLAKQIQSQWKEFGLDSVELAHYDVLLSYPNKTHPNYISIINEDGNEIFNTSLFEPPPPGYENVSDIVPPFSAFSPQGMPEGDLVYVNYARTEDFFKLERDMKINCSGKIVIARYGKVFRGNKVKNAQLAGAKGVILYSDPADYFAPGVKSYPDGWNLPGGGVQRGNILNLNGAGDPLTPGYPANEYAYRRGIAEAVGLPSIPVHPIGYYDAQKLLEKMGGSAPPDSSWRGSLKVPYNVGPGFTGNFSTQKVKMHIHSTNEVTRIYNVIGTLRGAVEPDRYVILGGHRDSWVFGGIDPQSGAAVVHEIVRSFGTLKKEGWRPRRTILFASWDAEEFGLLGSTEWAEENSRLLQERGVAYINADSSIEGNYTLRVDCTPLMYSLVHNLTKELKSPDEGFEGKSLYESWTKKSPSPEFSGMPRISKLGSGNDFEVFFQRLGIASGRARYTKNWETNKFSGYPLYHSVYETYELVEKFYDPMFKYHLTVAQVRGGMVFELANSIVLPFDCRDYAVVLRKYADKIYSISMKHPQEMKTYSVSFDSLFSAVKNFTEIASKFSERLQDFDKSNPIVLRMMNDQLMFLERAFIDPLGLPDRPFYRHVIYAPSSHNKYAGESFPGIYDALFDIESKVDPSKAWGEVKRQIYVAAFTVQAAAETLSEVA

IC50 [1] [nM]	Kd [2] [nM]	Compound
200 to 1260	12.6 to 126	CC(=O)N[C@H](C(=O)NC(C)(C)C(=O)N[C@@H](Cc1ccccc1)C(=O)N[C@H]1CSSC[C@@H](C(=O)N[C@H](C(=O)N[C@H](C(N)=O)[C@@H](C)O)C(C)(C)C)NC(=O)[C@H](CC(N)=O)NC(=O)[C@H](CCCCNC(=O)CCC(=O)NCCCOCCOCCOCCCNC(=O)CN2CCN(CC(=O)O)CCN(CC(=O)O)CCN(CC(=O)O)CC2)NC(=O)[C@H](CCC(N)=O)NC(=O)[C@H](CCCCN)NC1=O)[C@@H](C)O [PSM-0423, Ac-Thr-Aib-Phe-[Cys-Lys-Gln-Lys(DOTA-Ttds)-Asn-Cys]-Tle-Thr-NH2] (Ac-T[Aib]FCKQK([Suc-X3])NC[Tle]T-NH2; disulfide 4-9)
< 200	< 12.6	CC(=O)N[C@H](C(=O)NC(C)(C)C(=O)N[C@@H](Cc1ccccc1)C(=O)N[C@H]1CSSC[C@@H](C(=O)N[C@H](C(=O)NCCC(N)=O)C(C)(C)C)NC(=O)[C@H](CC(N)=O)NC(=O)C(C)(C)NC(=O)[C@H](CCCNC(=N)N)NC(=O)[C@H](CCCCN)NC1=O)[C@@H](C)O [PSM-0426, Ac-Thr-Aib-Phe-[Cys-Lys-Arg-Aib-Asn-Cys]-Tle-Bal-NH2] (Ac-T[Aib]FCKR[Aib]NC[Tle][βAla]-NH2; disulfide 4-9)
< 200	12.6 to 126	CCCCNC(=O)N[C@H](C(=O)NC(C)(C)C(=O)N[C@@H](Cc1ccc(Cl)cc1)C(=O)N[C@H]1CSSC[C@@H](C(=O)N[C@H](C(=O)N[C@H](C(=O)N2CCC(CC(=O)N[C@H](CCCCNC(=O)CN3CCN(CC(=O)O)CCN(CC(=O)O)CCN(CC(=O)O)CC3)C(N)=O)CC2)[C@@H](C)O)C(C)(C)C)NC(=O)[C@H](CC(N)=O)NC(=O)C(C)(C)NC(=O)[C@H](CCCNc2ccccn2)NC(=O)[C@H](CCCCN)NC1=O)[C@@H](C)O [PSM-0427, nBuCAyl-Thr-Aib-Pcf-[Cys-Lys-Opy-Aib-Asn-Cys]-Tle-Thr-Cmp-lys(DOTA)-NH2] ({NHBu-CO}-T[Aib][Phe(4-Cl)]CK[Orn](Pyridin(2-yl))[Aib]NC[Tle]T[X1][dK](DOTA)-NH2; disulfide 4-9)
200 to 1260	< 12.6	C[C@@H](O)[C@H](NC(=O)[C@@H](NC(=O)[C@@H]1CSSC[C@H](NC(=O)[C@H](Cc2cccc(Cl)c2)NC(=O)C(C)(C)NC(=O)[C@@H](NC(=O)CC2CCN(C(=O)CN3CCN(CC(=O)O)CCN(CC(=O)O)CCN(CC(=O)O)CC3)CC2)[C@@H](C)O)C(=O)N[C@@H](CCCCN)C(=O)N[C@@H](CCCNC(N)=O)C(=O)NC(C)(C)C(=O)N[C@@H](CC(N)=O)C(=O)N1)C(C)(C)C)C(N)=O [PSM-0431, DOTA-Cmp-Thr-Aib-Mcf-[Cys-Lys-Cit-Aib-Asn-Cys]-Tle-Thr-NH2] ({DOTA}-[X1]T[Aib][Phe(3-Cl)]CK[Cit][Aib]NC[Tle]T-NH2; disulfide 5-10)
< 200	< 12.6	CC(C)(NC(=O)c1ccc(CNC(=O)CN2CCN(CC(=O)O)CCN(CC(=O)O)CCN(CC(=O)O)CC2)cc1)C(=O)N[C@@H](Cc1ccc(Cl)cc1)C(=O)N[C@H]1CSSC[C@@H](C(=O)N[C@H](C(=O)NCCC(N)=O)C(C)(C)C)NC(=O)[C@H](CC(N)=O)NC(=O)C(C)(C)NC(=O)[C@H](CCCNC(=N)N)NC(=O)[C@H](CCCCN)NC1=O [PSM-0432, DOTA-Pamb-Aib-Pcf-[Cys-Lys-Arg-Aib-Asn-Cys]-Tle-Bal-NH2] ({DOTA-4Amb}-[Aib][Phe(4-Cl)]CKR[Aib]NC[Tle][βAla]-NH2; disulfide 3-8)
200 to 1260	12.6 to 126	CCCCNC(=O)N[C@H](C(=O)NC(C)(C)C(=O)N[C@@H](Cc1ccccc1)C(=O)N[C@H]1CSSC[C@@H](C(=O)N[C@H](C(=O)N[C@H](C(=O)N2CCC(CC(=O)N[C@H](CCCCNC(=O)CN3CCN(CC(=O)O)CCN(CC(=O)O)CCN(CC(=O)O)CC3)C(N)=O)CC2)[C@@H](C)O)C(C)(C)C)NC(=O)[C@H](CC(N)=O)NC(=O)C(C)(C)NC(=O)[C@H](CCCNC(N)=O)NC(=O)[C@H](CCCCN)NC1=O)[C@@H](C)O [PSM-0434, nBuCAyl-Thr-Aib-Phe-[Cys-Lys-Cit-Aib-Asn-Cys]-Tle-Thr-Cmp-lys(DOTA)-NH2] ({NHBu-CO}-T[Aib]FCK[Cit][Aib]NC[Tle]T[X1][dK](DOTA)-NH2; disulfide 4-9)
< 200	12.6 to 126	CC(=O)N[C@H](C(=O)NC(C)(C)C(=O)N[C@@H](Cc1ccccc1)C(=O)N[C@H]1CSSC[C@@H](C(=O)N[C@H](C(=O)N[C@H](C(=O)N[C@@H](CC(=O)O)C(N)=O)[C@@H](C)O)C(C)(C)C)NC(=O)[C@H](CC(N)=O)NC(=O)[C@H](C)NC(=O)[C@H](CCCNC(=N)N)NC(=O)[C@H](CCC(N)=O)NC1=O)[C@@H](C)O [PSM-0435, Ac-Thr-Aib-Phe-[Cys-Gln-Arg-Ala-Asn-Cys]-Tle-Thr-Asp-NH2] (Ac-T[Aib]FCQRANC[Tle]TD-NH2; disulfide 4-9)
< 200	12.6 to 126	C[C@@H](O)[C@H](NC(=O)[C@@H](NC(=O)[C@@H]1CSSC[C@H](NC(=O)[C@H](Cc2ccccc2)NC(=O)C(C)(C)NC(=O)CCNC(=O)CN2CCN(CC(=O)O)CCN(CC(=O)O)CCN(CC(=O)O)CC2)C(=O)N[C@@H](CCCCN)C(=O)N[C@@H](CCCNC(=N)N)C(=O)NC(C)(C)C(=O)N[C@@H](CC(N)=O)C(=O)N1)C(C)(C)C)C(N)=O [PSM-0437, DOTA-Bal-Aib-Phe-[Cys-Lys-Arg-Aib-Asn-Cys]-Tle-Thr-NH2] ({DOTA-βAla}-[Aib]FCKR[Aib]NC[Tle]T-NH2; disulfide 3-8)
< 200	126 to 501	CC(=O)N[C@H](C(=O)NC(C)(C)C(=O)N[C@@H](Cc1ccccc1)C(=O)N[C@H]1CSSC[C@@H](C(=O)N[C@H](C(=O)N[C@H](C(=O)N[C@@H](CC(=O)O)C(N)=O)[C@@H](C)O)C(C)(C)C)NC(=O)[C@H](CC(N)=O)NC(=O)[C@H](C)NC(=O)[C@H](CCCNC(=N)N)NC(=O)[C@H](Cc2ccc(N)cc2)NC1=O)[C@@H](C)O [PSM-0439, Ac-Thr-Aib-Phe-[Cys-Aph-Arg-Ala-Asn-Cys]-Tle-Thr-Asp-NH2] (Ac-T[Aib]FC[Phe(4-NH2)]RANC[Tle]TD-NH2; disulfide 4-9)
< 200	12.6 to 126	CC(=O)N[C@H](C(=O)NC(C)(C)C(=O)N[C@@H](CSCc1ccccc1)C(=O)N[C@H]1CSSC[C@@H](C(=O)N[C@H](C(=O)N[C@H](C(N)=O)[C@@H](C)O)C(C)(C)C)NC(=O)[C@H](CC(N)=O)NC(=O)C(C)(C)NC(=O)[C@H](CCCNC(=N)N)NC(=O)[C@H](CCCCN)NC1=O)[C@@H](C)O [PSM-0441, Ac-Thr-Aib-Cys(Bzl)-[Cys-Lys-Arg-Aib-Asn-Cys]-Tle-Thr-NH2] (Ac-T[Aib]C(Bn)CKR[Aib]NC[Tle]T-NH2; disulfide 4-9)
< 200	< 12.6	CC(=O)NC(C)(C)C(=O)N[C@@H](Cc1ccccc1)C(=O)N[C@H]1CSSC[C@@H](C(=O)N[C@H](C(=O)N[C@H](C(=O)N[C@@H](CC(=O)O)C(N)=O)[C@@H](C)O)C(C)(C)C)NC(=O)[C@H](CC(N)=O)NC(=O)C(C)(C)NC(=O)[C@H](CCCNC(=N)N)NC(=O)[C@H](CCCCN)NC1=O [PSM-0442, Ac-Aib-Phe-[Cys-Lys-Arg-Aib-Asn-Cys]-Tle-Thr-Asp-NH2] (Ac-[Aib]FCKR[Aib]NC[Tle]TD-NH2; disulfide 3-8)
200 to 1260	> 501	CC(=O)NC(C)(C)C(=O)N[C@@H](Cc1ccc(Cl)cc1)C(=O)N[C@H]1CSSC[C@@H](C(N)=O)NC(=O)[C@H](CC(N)=O)NC(=O)C(C)(C)NC(=O)[C@H](CCCNC(=N)N)NC(=O)[C@H](CCCCN)NC1=O [PSM-0443, Ac-Aib-Pcf-[Cys-Lys-Arg-Aib-Asn-Cys]-NH2] (Ac-[Aib][Phe(4-Cl)]CKR[Aib]NC-NH2; disulfide 3-8)
< 200	< 12.6	CC(C)CC(=O)NC(C)(C)C(=O)N[C@@H](Cc1ccc(Cl)cc1)C(=O)N[C@H]1CSSC[C@@H](C(=O)N[C@H](C(=O)N[C@H](C(=O)N[C@H](CCCCNC(=O)CN2CCN(CC(=O)O)CCN(CC(=O)O)CCN(CC(=O)O)CC2)C(N)=O)[C@@H](C)O)C(C)(C)C)NC(=O)[C@H](CC(N)=O)NC(=O)C(C)(C)NC(=O)[C@H](CCCNC(=N)N)NC(=O)[C@H](CCCCN)NC1=O [PSM-0444, Iva-Aib-Pcf-[Cys-Lys-Arg-Aib-Asn-Cys]-Tle-Thr-lys(DOTA)-NH2] (Isovaleryl-[Aib][Phe(4-Cl)]CKR[Aib]NC[Tle]T[dK](DOTA)-NH2; disulfide 3-8)
< 200	< 12.6	C[C@@H](O)[C@H](NC(=O)[C@@H](NC(=O)[C@@H]1CSSC[C@H](NC(=O)[C@H](Cc2ccc(Cl)cc2)NC(=O)C(C)(C)NC(=O)[C@@H](NC(=O)CC2CCN(C(=O)CN3CCN(CC(=O)O)CCN(CC(=O)O)CCN(CC(=O)O)CC3)CC2)[C@@H](C)O)C(=O)N[C@@H](CCCCN)C(=O)N[C@@H](CCCNC(=N)N)C(=O)NC(C)(C)C(=O)N[C@@H](CC(N)=O)C(=O)N1)C(C)(C)C)C(N)=O [PSM-0445, DOTA-Cmp-Thr-Aib-Pcf-[Cys-Lys-Arg-Aib-Asn-Cys]-Tle-Thr-NH2] ({DOTA}-[X1]T[Aib][Phe(4-Cl)]CKR[Aib]NC[Tle]T-NH2; disulfide 5-10)
> 3160	> 501	C[C@@H](O)[C@H](NC(=O)[C@@H](NC(=O)[C@@H]1CSSC[C@H](NC(=O)[C@H](Cc2ccccc2)NC(=O)C(C)(C)NC(=O)CN2CCN(CC(=O)O)CCN(CC(=O)O)CCN(CC(=O)O)CC2)C(=O)N[C@@H](CCCCN)C(=O)N[C@@H](CCCNC(=N)N)C(=O)NC(C)(C)C(=O)N[C@@H](CC(N)=O)C(=O)N1)C(C)(C)C)C(N)=O [PSM-0447, DOTA-Aib-Phe-[Cys-Lys-Arg-Aib-Asn-Cys]-Tle-Thr-NH2] ({DOTA}-[Aib]FCKR[Aib]NC[Tle]T-NH2; disulfide 3-8)
